Where a name gives a salt, the structure may show the parent alone.
Tests used:
Experiment in all cases: CA Inhibition Assay
Conditions in all cases: pH 7.4
Carbonic anhydrase 1 = Carbonic anhydrase 1 (Homo sapiens, UniProt P00915)
Carbonic anhydrase 2 = Carbonic anhydrase 2 (Homo sapiens, UniProt P00918)
Carbonic anhydrase 6 = Carbonic anhydrase 6 (Homo sapiens, UniProt P23280)
Carbonic anhydrase 4 = Carbonic anhydrase 4 (Homo sapiens, UniProt P22748)
Sequence of Carbonic anhydrase 4 (P22748 whole entry): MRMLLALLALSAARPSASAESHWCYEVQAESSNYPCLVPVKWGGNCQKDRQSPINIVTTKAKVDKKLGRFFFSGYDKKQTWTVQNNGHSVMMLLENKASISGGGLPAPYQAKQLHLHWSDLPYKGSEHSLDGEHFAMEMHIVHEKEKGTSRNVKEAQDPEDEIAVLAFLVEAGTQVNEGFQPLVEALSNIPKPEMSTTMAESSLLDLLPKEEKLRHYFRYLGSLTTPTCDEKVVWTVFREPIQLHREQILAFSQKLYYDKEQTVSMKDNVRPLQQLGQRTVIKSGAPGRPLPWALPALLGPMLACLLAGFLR

Sequence of Carbonic anhydrase 6 (P23280 whole entry): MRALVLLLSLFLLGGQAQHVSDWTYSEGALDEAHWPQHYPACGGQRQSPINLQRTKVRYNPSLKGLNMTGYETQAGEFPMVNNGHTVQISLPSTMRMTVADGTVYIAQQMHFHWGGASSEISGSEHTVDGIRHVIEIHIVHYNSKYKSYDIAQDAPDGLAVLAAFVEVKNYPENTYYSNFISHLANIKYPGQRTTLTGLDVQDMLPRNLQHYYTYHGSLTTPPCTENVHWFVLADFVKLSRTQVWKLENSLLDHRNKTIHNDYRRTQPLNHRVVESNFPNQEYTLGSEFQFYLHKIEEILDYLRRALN
Sequence of Carbonic anhydrase 1 (P00915 whole entry): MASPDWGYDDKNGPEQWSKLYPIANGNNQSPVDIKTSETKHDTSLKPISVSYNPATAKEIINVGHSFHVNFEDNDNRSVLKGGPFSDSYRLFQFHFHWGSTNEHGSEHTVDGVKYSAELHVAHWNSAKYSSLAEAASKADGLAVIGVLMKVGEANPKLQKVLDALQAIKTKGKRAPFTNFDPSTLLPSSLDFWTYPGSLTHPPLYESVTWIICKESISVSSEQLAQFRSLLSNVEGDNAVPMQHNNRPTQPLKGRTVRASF

| Ki (Carbonic anhydrase 1) | Ki (Carbonic anhydrase 2) | Ki (Carbonic anhydrase 6) | Ki (Carbonic anhydrase 4) | SMILES |
| --- | --- | --- | --- | --- |
| 142 µM | 23.7 µM | 278 µM | 234 µM | O[C@@H]1C2C[C@H](O)C1c1ccccc12 (stereo partly drawn) [9(R(S))-Hydroxy-1,2,3,4-tetrahydro-1,4-methanonaphthalen-2(R(S))-diol (9)] |
| 77.2 µM | 5.41 µM | 123 µM | 16.3 µM | O=S(=O)(O)O[C@@H]1CC/C=C\CC[C@H]1O [trans-(1R(S),8R(S),Z)-8-Hydroxycyclooct-4-enyl hydrogen sulfate (6)] |
| 41.3 µM | 2.13 µM | 93.1 µM | 13.7 µM | O=S(=O)(O)O[C@@H]1CC=CC[C@H]1O [trans-(1R(S),6R(S))-6-Hydroxycyclohex-3-enyl hydrogen sulfate (4)] |
| 423 µM | 32.4 µM | 127 µM | 77.9 µM | O[C@@H]1Cc2ccccc2C[C@H]1O [trans-(2R(S),3R(S))-1,2,3,4-Tetrahydronaphthalene-2,3-diol (11)] |
| 135 µM | 4.68 µM | 76.2 µM | 18.8 µM | O[C@@H]1CCCC[C@H]1O [(1R,2R)-trans-1,2-cyclohexanediol] |
| 32.7 µM | 10.4 µM | 221 µM | 199 µM | O=S(=O)(O)O[C@H]1CC2c3ccccc3C1[C@@H]2O (stereo partly drawn) [9(R(S))-Hydroxy-1,2,3,4-tetrahydro-1,4-methanonaphthalen-2(R(S))-yl sulfate (8)] |

Source: BindingDB's records for doi:10.3109/14756366.2011.629198 (Dumlupinar University, 2012)
